Reference: US11083717B2, “Compositions and methods for drug sensitization of parasites” (The Texas A&M University System, priority 2015, dated 2021)
In brackets after ≈: the same amount, converted by molar mass. Where two headings read alike, the source gives them in different places.

Experiments:
[1] = test system: Cryptosporidium parvum (CP); test: Cell culture model of Cryptosporidium parvum infection in HCT-8 cells, real-time qRT-PCR; format: cell-based; conditions: Cryptosporidium parvum; for MIC50: 44 h; for inhibition at 0.25 µM: HCT-8, @0.25 uM
Procedure: Fresh oocysts of CP (Iowa strain) were purchased from Bunch Grass Farm (Deary, Id.). Oocysts were further purified by a Percoll-based gradient centrifugation method and surface sterilized with 10% bleach for 7 min on ice, followed by washes with phosphate-buffered saline (PBS). An ileocecal colorectal adenocarcinoma cell line (HCT-8, ATCC #CCL-244) was used to host the growth of CP in vitro. One day before the inoculation, HCT-8 cells were seeded in 96-well plates (2.5×10^4/well) containing RPMI 1640 medium supplied with 10% fetal bovine serum (200 μL medium/well in all experiments) and allowed to grow overnight at 37° C. under 5% CO2 atmosphere until they reached ˜90% confluence. For drug testing, host cells were infected with 1.5×10^4 oocysts per well (ratio ˜1:3). After inoculation, parasite oocysts were allowed to undergo excystation and invasion into host cells for 3 h at 37° C. Free parasites and oocyst walls in the medium were removed from the plates by an exchange of the culture medium. Drugs at specified concentrations were added into the culture at this time point (immediately after the medium exchange). Parasite-infected cells were then incubated at 37° C. for additional 41 h (total 44 h infection time). At least two independent experiments were conducted for every experimental condition, each including two replicates drugs and eight replicates for negative controls.
Plates containing HCT-8 cells infected with CP for 44 h were first centrifuged for 10 min at 1000×g to ensure that free merozoites in the medium were firmly settled on the bottom of the wells. Medium was removed, followed by two gentle washes with PBS. For extracting total RNA, 200 μL of ice-cold Bio-Rad iScript qRT-PCR sample preparation reagent (lysis buffer) (Bio-Rad Laboratories, Hercules, Calif.) was added into each well. Plates were sealed with heat sealing films and subjected to vortex for 20 min. Plates were then incubated at 75° C. for 15 min, followed by centrifugation (5 min, 2000×g) to settle down cell debris. Supernatants were used immediately in subsequent qRT-PCR reactions or the plates were stored at −80° C. until use.
The levels of 18S rRNA transcripts from CP and host cells (referred to as Cp18S and Hs18S) were detected by real-time qRT-PCR method using qScrip™ one-step SYBR green qRT-PCR kit (Quanta Biosciences, Gaithersburg, Md.). Cell lysates prepared as described above were diluted by 100 and 2000 folds for detecting Cp18S and Hs18S transcripts, respectively. Reactions were performed in hard-shell 384-well skirted PCR plates (Bio-Rad Laboratories, Hercules, Calif.) (10 μL/well) containing 3 μL diluted cell lysate, 5 μL one-step SYBR green master mix, 0.2 μl RT master mix and the following primers: Cp18S-1011F and Cp18S-1185R primer pair for Cp18S rRNA, and Hs18S-1F and Hs18S-1R primer pair for Hs18S rRNA. Hs18S levels were used as controls and for normalization.
Real-time qRT-PCR reactions were performed by a Bio-Rad CFX384 Touch Real-Time PCR Detection System. The reactions started with synthesizing cDNA at 50° C. for 20 min, followed by 5 min at 95° C. to denature RNA-cDNA hybrids and deactivate reverse transcriptase, and 40 two-temperature thermal cycles of PCR amplification at 95° C., 10 sec and 58° C., 30 sec. At the end of PCR amplification, melting curve analysis was performed between 65° C. to 95° C. At least 2 technical replicates were included in qRT-PCR reactions for each sample.
The % inhibition (% inh @ (μM)) was calculated using a standard curve.

[2] = test system: S. cerevisiae; test: in vitro; conditions: Saccharomyces cerevisiae
[3] = test system: human fibroblast; test: in vitro
[4] = CP in HCT-8 cells, 44 h infection, 50% reduction of parasite growth vs control, NA: not active, read-out: MIC50
[5] = HCT-8, @10 uM, read-out: % inh @

Row | Compound | MIC50 [1, 4] | concentrations at which not toxic, S. cerevisiae cytotoxicity testing [2] | concentrations at which not toxic, human fibroblast cytotoxicity testing ([3]; human) | other results
1 | NC(=O)Cc1ccc(Oc2nc3cc(F)c(F)cc3s2)cc1F [NZ-496, 2-{4-[(5,6-difluoro-1,3-benzothiazol-2-yl)oxy]-2-fluorophenyl}acetamide] | 0.25 to 1 µM (≈ 0.0846 to 0.338 µg/mL) | ≥ 100 µM | ≥ 100 µM | –
2 | CONC(=O)COc1ccc(Oc2cnc3cc(Cl)ccc3n2)cc1 [NZ-274, 2-{4-[(6-chloroquinoxalin-2-yl)oxy]phenoxy}-N-methoxyacetamide] | – | ≥ 100 µM | – | inhibition at 10 µM ([1]; HCT-8, read-out: % inh @ (μM)): 1.5%; concentrations at which not toxic, human fibroblast cytotoxicity testing [3]: ≥ 100 µM
3 | CC(C(=O)N1CCNCC1)c1ccc(Oc2nc3ccc(F)cc3s2)cc1 (stereo not drawn) [NZ-477, 2-{4-[(6-fluoro-1,3-benzothiazol-2-yl)oxy]phenyl}-1-(piperazin-1-yl)propan-1-one] | 0.05 to 0.17 µM (≈ 0.0193 to 0.0655 µg/mL) | ≥ 100 µM | ≥ 100 µM | –
4 | NC(=O)CNC(=O)Cc1ccc(Oc2nc3ccc(F)cc3s2)cc1 [NZ-438, N-(carbamoylmethyl)-2-{4-[(6-fluoro-1,3-benzothiazol-2-yl)oxy]phenyl}acetamide] | 0.25 to 1 µM (≈ 0.0898 to 0.359 µg/mL) | ≥ 100 µM | ≥ 100 µM | inhibition at 0.25 µM [1]: 43%
5 | CN(C)CCNC(=O)Cc1ccc(Oc2nc3ccc(F)cc3s2)cc1 [NZ-425, N-[2-(dimethylamino)ethyl]-2-{4-[(6-fluoro-1,3-benzothiazol-2-yl)oxy]phenyl}acetamide] | 0.25 to 0.5 µM (≈ 0.0934 to 0.187 µg/mL) | ≥ 100 µM | ≥ 100 µM | –
6 | CC(C)NC(=O)Cc1ccc(Oc2nc3cc(F)c(F)cc3s2)cc1 [NZ-403, 2-{4-[(5,6-difluoro-1,3-benzothiazol-2-yl)oxy]phenyl)-N-(propan-2-yl)acetamide] | ~10 µM (≈ 3.62 µg/mL) | ≥ 100 µM | ≥ 100 µM | inhibition at 10 µM [1, 5]: 63%
7 | CN1CCN(C(=O)Cc2ccc(Oc3nc4ccc(F)cc4s3)cc2)CC1 [NZ-476, 2-{4-[(6-fluoro-1,3-benzothiazol-2-yl)oxy]phenyl}-1-(4-methylpiperazin-1-yl)ethan-1-one] | 0.5 to 1 µM (≈ 0.193 to 0.385 µg/mL) | ≥ 100 µM | ≥ 100 µM | –
8 | CNC(=O)Cc1ccc(Oc2nc3cc(F)c(F)cc3s2)cc1 [NZ-400, 2-{4-[(5,6-difluoro-1,3-benzothiazol-2-yl)oxy]phenyl}-N-methylacetamide] | – | ≥ 100 µM | – | MIC50 [1]: ~10 µM (≈ 3.34 µg/mL); inhibition at 10 µM ([1]; HCT-8, read-out: % inh @ (μM)): 67%; concentrations at which not toxic, human fibroblast cytotoxicity testing [3]: ≥ 100 µM
9 | O=C(Cc1ccc(Oc2nc3ccc(F)cc3s2)cc1)NCCO [NZ-426, 2-{4-[(6-fluoro-1,3-benzothiazol-2-yl)oxy]phenyl}-N-(2-hydroxyethyl)acetamide] | 0.25 to 1 µM (≈ 0.0866 to 0.346 µg/mL) | ≥ 100 µM | ≥ 100 µM | –
10 | O=C(Cc1ccc(Oc2nc3ccc(F)cc3s2)cc1)N1CCCCC1 [NZ-471, 2-{4-[(6-fluoro-1,3-benzothiazol-2-yl)oxy]phenyl}-1-(piperidin-1-yl)ethan-1-one] | 1 to 4 µM (≈ 0.37 to 1.48 µg/mL) | ≥ 100 µM | ≥ 100 µM | inhibition at 4 µM ([1]; HCT-8, @4 uM, read-out: % inh @): 89%
11 | O=C(Cc1ccc(Oc2nc3ccc(F)cc3s2)cc1)N1CCNCC1 [NZ-472, 2-{4-[(6-fluoro-1,3-benzothiazol-2-yl)oxy]phenyl}-1-(piperazin-1-yl)ethan-1-one] | ~1 µM (≈ 0.371 µg/mL) | ≥ 100 µM | ≥ 100 µM | –
12 | CNC(=O)Cc1ccc(Oc2nc3ccc(Cl)cc3s2)cc1O [NZ-389, 2-{4-[(6-chloro-1,3-benzothiazol-2-yl)oxy]-2-hydroxyphenyl}-N-methylacetamide] | ~1.1 µM (≈ 0.384 µg/mL) | ≥ 100 µM | ≥ 100 µM | –
13 | CNC(=O)Cc1c(F)cc(Oc2nc3cc(F)c(F)cc3s2)cc1F [NZ-450, 2-{4-[(5,6-difluoro-1,3-benzothiazol-2-yl)oxy]-2,6-difluorophenyl}-N-methylacetamide] | ~2 µM (≈ 0.741 µg/mL) | ≥ 100 µM | ≥ 100 µM | –
14 | CC(C)NC(=O)Nc1ccc(Oc2nc3ccc(F)cc3s2)cc1 [NZ-332, 1-{4-[(6-fluoro-1,3-benzothiazol-2-yl)oxy]phenyl}-3-(propan-2-yl)urea] | – | ≥ 100 µM | – | MIC50 [1]: ~2.5 µM (≈ 0.863 µg/mL); concentrations at which not toxic, human fibroblast cytotoxicity testing [3]: ≥ 100 µM
15 | CNC(=O)Cc1ccc(Oc2nc3cc(F)c(F)cc3s2)cc1O [NZ-401, 2-{4-[(5,6-difluoro-1,3-benzothiazol-2-yl)oxy]-2-hydroxyphenyl}-N-methylacetamide] | – | ≥ 100 µM | – | inhibition at 4 µM ([1]; HCT-8, read-out: % inh @ (μM)): 3%; concentrations at which not toxic, human fibroblast cytotoxicity testing [3]: ≥ 100 µM
16 | CNC(=O)Cc1ccc(Oc2nc3ccc(F)cc3s2)cc1F [NZ-410, 2-{2-fluoro-4-[(6-fluoro-1,3-benzothiazol-2-yl)oxy]phenyl}-N-methylacetamide] | – | ≥ 100 µM | – | MIC50 [1]: 2 to 10 µM (≈ 0.669 to 3.34 µg/mL); inhibition at 10 µM ([1]; HCT-8, read-out: % inh @ (μM)): 94%; concentrations at which not toxic, human fibroblast cytotoxicity testing [3]: ≥ 100 µM
17 | CONC(=O)C(C)c1ccc(Oc2cnc3cc(Cl)ccc3n2)cc1 (stereo not drawn) [NZ-310, 2-{4-[(6-chloroquinoxalin-2-yl)oxy]phenyl}-N-methoxypropanamide] | – | ≥ 100 µM | ≥ 100 µM | inhibition at 10 µM [1, 5]: 83%
18 | O=C(Cc1ccc(Oc2nc3ccc(Cl)cc3s2)cc1)N1CCNCC1 [NZ-479, 2-{4-[(6-chloro-1,3-benzothiazol-2-yl)oxy]phenyl}-1-(piperazin-1-yl)ethan-1-one] | 0.5 to 1 µM (≈ 0.194 to 0.388 µg/mL) | ≥ 100 µM | ≥ 100 µM | –
19 | NCCNC(=O)Cc1ccc(Oc2nc3ccc(F)cc3s2)cc1 [NZ-427, N-(2-aminoethyl)-2-{4-[(6-fluoro-1,3-benzothiazol-2-yl)oxy]phenyl}acetamide] | < 0.25 µM | ≥ 100 µM | ≥ 100 µM | inhibition at 0.25 µM [1]: 71%
20 | O=C(Cc1ccc(Oc2nc3cc(F)c(F)cc3s2)cc1)N1CCCCC1 [NZ-481, 2-{4-[(5,6-difluoro-1,3-benzothiazol-2-yl)oxy]phenyl}-1-(piperidin-1-yl)ethan-1-one] | 1 to 4 µM (≈ 0.388 to 1.55 µg/mL) | ≥ 100 µM | ≥ 100 µM | –
21 | CNC(=O)Cc1c(F)cc(Oc2nc3ccc(Cl)cc3s2)cc1F [NZ-459, 2-{4-[(6-chloro-1,3-benzothiazol-2-yl)oxy]-2,6-difluorophenyl}-N-methylacetamide] | 1 µM (≈ 0.369 µg/mL) | ≥ 100 µM | ≥ 100 µM | –
